Results published in patent US20080207617A1, “Quinoline Derivatives and Quinazoline Derivatives Inhibiting Autophosphrylation of Flt3 and Medicinal Compositions Containing the Same” (KIRIN BEER KABUSHIKI KAISHA, priority 2002, published 2008).
Counter-ions that a name gives are not always drawn. Like-named read-outs stand apart in the source and are kept apart here.

Columns and labels:
MOLM13 [1] = assay: Tumor growth inhibitory activities in nude mice xenograft model inoculated with human leukemia cells MOLM13; format: in vivo; conditions: Mus musculus, MOLM-13, po, read-out: TGIR (%) (measurement date); for inhibition in vivo at 50 mg/kg: 50 mg/kg orally once a day
Procedure: Pharmacological Test Example 5
Tumor Growth Inhibitory Activities in Nude Mice Xenograft Model Inoculated with Human Leukemia Cells
Human leukemia cells MOLM13 (subdivided from Hayashibara Biochemical Laboratories, Inc.) were subcutaneously transplanted into nude mice. […] The test compound suspended or dissolved in 0.5% methylcellulose was orally administered at a dose of 0.1 ml per 10 g body weight once a day for 9 days. For the control group, only vehicle was administered.
The tumor growth inhibition rate (TGIR) was calculated as follows:
The tumor growth inhibition rate (TGIR)=(1−TX/CX)×100
wherein CX represents the volume of tumor at day X for the control group when the tumor volume at the day of the start of the administration (day 1) was presumed to be 1; and TX represents the volume of tumor at day X for test compound administration groups.

MV4-11 = assay: Cell growth inhibitory test MV4-11 (WST-1); format: cell-based, human; conditions: MV4-11 cells, 3 days culture
How it was run: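 MV4-11 leukemia cells (3×10^3/well, DMEM + 10% FCS) were cultured 3 days with compound in DMSO at 5% CO2. Growth read by WST-1 absorbance at 450 nm (ref 650 nm), normalized to untreated (100%) and cell-free (0%) wells; IC50 from multiple concentrations.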

MOLM13 [2] = assay: Cell growth inhibitory activities on cultured human leukemia cells MOLM-13 (WST-1); format: cell-based; conditions: 3 days culture

Row | IC50 (MV4-11; Homo sapiens, MV4-11, 72 h) [nM] | IC50 (MOLM13 [2]; Homo sapiens, MOLM-13, 72 h) [nM] | SMILES | also measured
1 | < 1 | 1 | COc1cc2nccc(Oc3ccc(NC(=O)NCCC(C)(C)C)cc3)c2cc1OC [Compound 1, 1-[4-(6,7-Dimethoxy-quinolin-4-yloxy)-phenyl]-3-(3,3-dimethyl-butyl)-urea hydrochloride] | inhibition in vivo at 50 mg/kg (MOLM13 [1]; 264 h, day 11): 53.8%
2 | 8 | 21 | COc1cc2nccc(Oc3c(Cl)cc(NC(=O)NCCC(C)(C)C)cc3Cl)c2cc1OC [Compound 6, 1-[3,5-Dichloro-4-(6,7-dimethoxy-quinolin--4-yloxy)-phenyl]-3-(3,3-dimethyl-butyl)-urea] | –
3 | 1 | 3 | COc1cc2nccc(Oc3ccc(NC(=O)NCCC(C)(C)C)cc3Cl)c2cc1OC [Compound 8, 1-[3-Chloro-4-(6,7-dimethoxy-quinolin-4-yloxy)-phenyl]-3-(3,3-dimethyl-butyl)-urea] | –
4 | < 1 | 2 | COc1cc2nccc(Oc3ccc(NC(=O)NCCC(C)(C)C)cc3F)c2cc1OC [Compound 10, 1-[4-(6,7-Dimethoxy-quinolin-4-yloxy)-3-fluoro-phenyl]-3-(3,3-dimethyl-butyl)-urea hydrochloride] | inhibition in vivo at 50 mg/kg (MOLM13 [1]; 240 h, day 10): 84.8%
5 | – | – | COc1cc2c(Oc3ccc(NC(=O)NCCC(C)(C)C)c(F)c3)ccnc2cc1OCCN1CCOCC1 [Compound 41, 1-(3,3-Dimethyl-butyl)-3-{2-fluoro-4-[6-methoxy-7-(2-morpholin-4-yl-ethoxy)-quinolin-4-yloxy]-phenyl}-urea hydrochloride] | IC50 (MV4-11; hydrochloride): 25 nM; IC50 (MOLM13 [2]; hydrochloride): 75 nM
6 | 12 | 22 | COc1cc2c(Oc3ccc(NC(=O)NCCC(C)(C)C)c(F)c3)ccnc2cc1OCCN1CCCCC1 [Compound 43, 1-(3,3-Dimethyl-butyl)-3-{2-fluoro-4-[6-methoxy-7-(2-piperidin-1-yl-ethoxy)-quinolin-4-yloxy]-phenyl}-urea hydrochloride] | inhibition in vivo at 50 mg/kg (MOLM13 [1]; 240 h, day 10): 98.1%
7 | 2 | 3 | COc1cc2c(Oc3ccc(NC(=O)NCCC(C)(C)C)cc3F)ccnc2cc1OCCN1CCCCC1 [Compound 44, 1-(3,3-Dimethyl-butyl)-3-{3-fluoro-4-[6-methoxy-7-(2-piperidin-1-yl-ethoxy)-quinolin-4-yloxy]-phenyl}-urea] | inhibition in vivo at 12.5 mg/kg (MOLM13 [1]; 216 h, 12.5 mg/kg orally once a day, day 9): 99.6%; inhibition in vivo at 25 mg/kg (MOLM13 [1]; 216 h, 25 mg/kg orally once a day, day 9): 99.8%
